Tests used:
BhorOBPm2 [1] = target: T1, BhorOBPm2 (Batocera horsfieldi, UniProt D4P5A8); assay: 1-NPN fluorescence competition binding; conditions: pH 7.4, 30 mM Tris-HCl, room temperature, 2 μM protein, 2 μM 1-NPN
T1 construct: antennal cDNA, ORF 435 bp, 145 residues printed incl; 21-residue signal peptide; reverse primer encodes ETFIFF-stop

BhorOBPm2 [2] = target: T1, BhorOBPm2; assay: direct 1-NPN fluorescence titration, Scatchard plot; assay type: binding; conditions: 30 mM Tris-HCl, room temperature, 2 μM protein, 0-28 μM 1-NPN; fluorescent probe
CquiOBP1 = conditions: cited from earlier work
BhorOBPm2 [3] = assay: Fluorescence competition-binding assay with 1-NPN probe, wild-type BhorOBPm2; parameters: species or system Batocera horsfieldi; conditions: BhorOBPm2, discussion
Method: Fluorescence competition-binding assays were performed to determine the binding affinity of the BhorOBPm2 protein for various ligands using 1-NPN as a fluorescent probe. […] The fluorescence of 1-NPN was excited at 337 nm, and emission was recorded at between 350 nm and 600 nm using a RF-5301PC fluorescence spectrophotometer (Shimadzu, Kyoto, Japan), a 1-cm light path, and a quartz cuvette. The competitive binding of ligands was measured using 1-NPN (2 μM) as the fluorescent probe with a stoichiometry of 1:1 (protein:ligand), with the final concentration of each ligand added to the sample ranging from 0 μM to 20 μM. […] The binding data were obtained from three independent measurements. […] Binding affinities (Ki) of the OBPs for each ligand were determined based on the IC50 value (the initial fluorescence level of the competitor concentration reduced by half) using the equation: Ki = [IC50]/(1 + [1-NPN]/K1-NPN), where [1-NPN] is the free concentration of 1-NPN, and K1-NPN is the dissociation constant of the complex BhorOBPm2/1-NPN.

BhorOBPm2 [4] = target: T1, BhorOBPm2; assay: 1-NPN fluorescence competition binding; conditions: pH 7.4, 30 mM Tris-HCl, room temperature, 2 μM protein, 2 μM 1-NPN; reciprocal Ki, not Ki itself

T1 sequence (D4P5A8 entry or part of it): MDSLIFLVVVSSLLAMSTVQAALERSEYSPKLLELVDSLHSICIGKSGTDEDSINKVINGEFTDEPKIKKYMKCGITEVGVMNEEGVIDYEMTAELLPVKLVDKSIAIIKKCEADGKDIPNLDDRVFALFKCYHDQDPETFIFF

## CCCCCCCCCCCC(C)=O [2-tridecanone]
BhorOBPm2 [1]
  1/Ki*1000: 353.05 1/Ki(uM)*1000

## c1ccc(Nc2cccc3ccccc23)cc1 [N-phenyl-1-naphthylamine]
BhorOBPm2 [2]
  Kd: The dissociation constants (Kd) of the OBPs for 1-NPN were calculated from Scatchard plots

## CCCCCCCC=O [Octanal, octanal]
CquiOBP1
  binding affinity (in words): high binding affinities

## CCCCCCCCCC=O [decanal]
BhorOBPm2 [1]
  1/Ki*1000: 102.21 1/Ki(uM)*1000
CquiOBP1
  binding affinity (in words): high binding affinities

## CCCCCCCCCCCCCCCCCCCCCCCCCCC [heptacosane]
BhorOBPm2 [1]
  1/Ki*1000: 45.56 1/Ki(uM)*1000
BhorOBPm2 [3]
  binding affinity (in words): low binding affinities

## CCCCCCCCC=O [nonanal]
BhorOBPm2 [1]
  1/Ki*1000: 50.40 1/Ki(uM)*1000
CquiOBP1
  binding affinity (in words): high binding affinities

## CCCCCCCC=O [octanal]
BhorOBPm2 [1]
  1/Ki*1000: 54.09 1/Ki(uM)*1000

## CCCCCCCCCCCCCCCCCCCCCCCCC [pentacosane]
BhorOBPm2 [1]
  1/Ki*1000: 1.89 1/Ki(uM)*1000
BhorOBPm2 [3]
  binding affinity (in words): low binding affinities

## CCCCCCCCCCCCCC [tetradecane]
BhorOBPm2 [1]
  1/Ki*1000: 94.91 1/Ki(uM)*1000

## CCCCCCCCCCCCC [tridecane]
BhorOBPm2 [1]
  1/Ki*1000: 262.09 1/Ki(uM)*1000

## Farnesene
BhorOBPm2 [4]
  1/Ki(μM) × 1000: 1159.11 1000/μM (reciprocal of Ki in μM, times 1000)

## farnesene
BhorOBPm2 [3]
  binding affinity (in words): highest binding affinity

From article PMC5034290, “Predicted structure of a Minus-C OBP from Batocera horsfieldi (Hope) suggests an intermediate structure in evolution of OBPs” (Scientific Reports, 2016)
